Results as given in PubChem BioAssay AID588490 (The Scripps Research Institute Molecular Screening Center, 2011).

How the values were obtained:
Experiment in all cases: PubChem AID 588490
[1] = target: Protein-arginine deiminase type-3 (Homo sapiens) (UniProt Q9ULW8); conditions: recombinant PAD1-4, BAEE citrulline colorimetric absorbance; PAD3
[2] = target: Protein-arginine deiminase type-2 (Homo sapiens) (UniProt Q9Y2J8); conditions: recombinant PAD1-4, BAEE citrulline colorimetric absorbance; PAD2
[3] = target: Protein-arginine deiminase type-1 (Homo sapiens) (UniProt Q9ULC6); conditions: recombinant PAD1-4, BAEE citrulline colorimetric absorbance; PAD1
Chain of Protein-arginine deiminase type-1 (Homo sapiens) (Q9ULC6 whole entry, looked up): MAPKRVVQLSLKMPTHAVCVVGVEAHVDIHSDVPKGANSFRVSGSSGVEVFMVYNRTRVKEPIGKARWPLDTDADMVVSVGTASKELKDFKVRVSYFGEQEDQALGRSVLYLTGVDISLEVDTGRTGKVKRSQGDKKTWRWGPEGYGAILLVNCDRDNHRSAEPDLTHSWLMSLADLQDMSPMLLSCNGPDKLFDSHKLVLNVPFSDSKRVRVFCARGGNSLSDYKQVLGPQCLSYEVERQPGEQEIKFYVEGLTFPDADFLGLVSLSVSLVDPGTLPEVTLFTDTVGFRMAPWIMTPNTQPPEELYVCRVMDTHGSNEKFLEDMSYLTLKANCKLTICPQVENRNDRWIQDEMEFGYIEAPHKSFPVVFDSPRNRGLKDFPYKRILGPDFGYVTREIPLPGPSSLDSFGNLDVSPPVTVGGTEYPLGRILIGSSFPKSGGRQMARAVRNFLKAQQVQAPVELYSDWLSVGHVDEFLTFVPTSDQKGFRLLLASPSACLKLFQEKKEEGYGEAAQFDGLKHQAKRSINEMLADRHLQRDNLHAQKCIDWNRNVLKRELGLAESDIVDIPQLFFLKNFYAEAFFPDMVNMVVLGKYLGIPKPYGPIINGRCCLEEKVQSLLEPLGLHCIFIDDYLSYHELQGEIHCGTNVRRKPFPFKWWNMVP

Chain of Protein-arginine deiminase type-3 (Homo sapiens) (Q9ULW8 whole entry, looked up): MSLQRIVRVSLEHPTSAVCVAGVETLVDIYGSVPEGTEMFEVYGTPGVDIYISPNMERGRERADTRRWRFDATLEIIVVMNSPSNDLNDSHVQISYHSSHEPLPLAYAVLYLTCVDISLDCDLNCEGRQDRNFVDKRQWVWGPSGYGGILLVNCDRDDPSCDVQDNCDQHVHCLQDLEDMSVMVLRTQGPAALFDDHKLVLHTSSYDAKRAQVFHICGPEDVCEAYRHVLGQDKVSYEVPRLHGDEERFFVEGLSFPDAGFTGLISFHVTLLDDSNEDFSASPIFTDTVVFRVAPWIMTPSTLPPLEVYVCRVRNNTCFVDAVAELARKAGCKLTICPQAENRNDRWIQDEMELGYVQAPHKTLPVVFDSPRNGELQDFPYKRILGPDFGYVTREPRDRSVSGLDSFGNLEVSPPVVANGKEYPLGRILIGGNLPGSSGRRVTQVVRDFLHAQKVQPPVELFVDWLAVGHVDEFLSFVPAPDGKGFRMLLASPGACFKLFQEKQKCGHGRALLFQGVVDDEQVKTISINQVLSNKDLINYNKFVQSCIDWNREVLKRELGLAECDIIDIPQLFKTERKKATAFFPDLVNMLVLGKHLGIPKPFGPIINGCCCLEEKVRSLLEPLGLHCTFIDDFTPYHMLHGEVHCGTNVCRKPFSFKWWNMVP
Chain of Protein-arginine deiminase type-2 (Homo sapiens) (Q9Y2J8 whole entry, looked up): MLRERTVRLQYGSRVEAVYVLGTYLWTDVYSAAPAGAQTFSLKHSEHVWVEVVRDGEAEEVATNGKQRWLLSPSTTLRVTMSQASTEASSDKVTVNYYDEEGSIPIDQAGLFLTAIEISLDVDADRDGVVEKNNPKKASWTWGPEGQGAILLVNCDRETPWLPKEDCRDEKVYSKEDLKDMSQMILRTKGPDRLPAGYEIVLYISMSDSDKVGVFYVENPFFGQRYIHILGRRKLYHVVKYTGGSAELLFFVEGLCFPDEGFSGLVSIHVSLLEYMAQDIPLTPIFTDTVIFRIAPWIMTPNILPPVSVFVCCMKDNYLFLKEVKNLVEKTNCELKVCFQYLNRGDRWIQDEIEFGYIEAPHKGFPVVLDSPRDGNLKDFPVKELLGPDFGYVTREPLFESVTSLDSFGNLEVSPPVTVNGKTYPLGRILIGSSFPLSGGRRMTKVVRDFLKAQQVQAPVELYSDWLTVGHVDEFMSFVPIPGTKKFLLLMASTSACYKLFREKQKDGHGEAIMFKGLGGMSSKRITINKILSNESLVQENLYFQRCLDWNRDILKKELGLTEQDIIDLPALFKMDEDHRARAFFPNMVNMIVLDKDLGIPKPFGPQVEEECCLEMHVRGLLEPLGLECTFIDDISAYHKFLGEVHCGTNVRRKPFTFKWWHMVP

IC50 [1]: 710 nM
IC50 [2]: 200 nM
IC50 [3]: 70 nM
Structure (SMILES): NC1=CC(=O)c2ccc(-c3cccc(C(=O)O)n3)nc2C1=O
